In patent US5395757A, “Method for the hydrolysis of sugar compounds and reagent therefor” (Takara Shuzo Co., Ltd., priority 1991, dated 1995):

test system: lacto-N-biosidase and α-1,3/4 fucosidase; experiment: Digestion with a mixture of lacto-N-biosidase and α-1,3/4 fucosidase; format: biochemical; settings: lacto-N-biosidase plus α-1,3/4 fucosidase
Source text: The method and the reagent of this invention can be used in studies done to identify type 1 structures in glycoconjugates, to distinguish type 1 oligosaccharides from type 2 oligosaccharides, and to elucidate the functions of lacto-N-biosyl residues in glycoconjugates. In particular, with its use, the Le^a structure can be easily distinguished from the Le^x structure by use of lacto-N-biosidase and α-1,3/4 fucosidase (Ogata-Arakawa et al., Arch. Biochem. Biophys. 181, 353, 1977; Scudder et al., J. Biol. Chem. 265, 16472, 1990; Sano et al., J. Biol. Chem. 267, 1522, 1992).

Row | Molecule | product obtained on treatment with the mixture of the two enzymes
1 | CC(=O)N[C@H]1[C@H](O[C@H]2[C@@H](O)[C@@H](CO)O[C@@H](O[C@@H]([C@H](O)[C@@H](O)CNc3ccccn3)[C@H](O)CO)[C@@H]2O)O[C@H](CO)[C@@H](O[C@@H]2O[C@@H](C)[C@@H](O)[C@@H](O)[C@@H]2O)[C@@H]1O[C@@H]1O[C@H](CO)[C@H](O)[C@H](O)[C@H]1O [PA-lacto-N-fucopentaose II] | PA-lactose was obtained
2 | CC(=O)N[C@H]1[C@H](O[C@H]2[C@@H](O)[C@@H](CO)O[C@@H](O[C@@H]([C@H](O)[C@@H](O)CNc3ccccn3)[C@H](O)CO)[C@@H]2O)O[C@H](CO)[C@@H](O[C@@H]2O[C@H](CO)[C@H](O)[C@H](O)[C@H]2O)[C@@H]1O[C@@H]1O[C@@H](C)[C@@H](O)[C@@H](O)[C@@H]1O [PA-lacto-N-fucopentaose III] | PA-lacto-N-neotetraose was obtained

test system: lacto-N-biosidase; experiment: Structural analysis of reaction products of lacto-N-biosidase (Example 3); format: biochemical, Streptomyces sp 142; settings: about 100 nmol substrate, 0.6 mU enzyme, 60 h at 37° C., pH 6.0
Procedure: To elucidate the reaction products of lacto-N-biosidase obtained by the method of example 1, the structures of the enzyme reaction products were analyzed in detail with the PA-oligosaccharide shown as formula VI below as the substrate. PA-oligosaccharide described by formula VI (about 100 nmol; Takara Shuzo Co.) mixed with lacto-N-biosidase (total, 0.6 mU) prepared as described in example 1 was digested for 60 h at 37° C. in a final volume of 360 μl containing 0.1M potassium phosphate buffer, pH 6.0. The reaction mixture was pyridylaminated by the method described in U.S. Pat. No. 4,975,533 and analyzed by HPLC with an amino-silica column. There were two peaks of PA-oligosaccharides: fractions 1 and 2. The elution position of fraction 1 was the same as that of the PA-oligosaccharide described by formula VII, and the elution position of fraction 2 was the same as that of PA-oligosaccharide described by formula VIII below. The amounts of these two products, calculated from the peak areas of fractions 1 and 2 , were identical to that of the PA-oligosaccharide substrate of formula VI.

Row | Molecule | linkage cleaved by the enzyme reaction
3 | CC(=O)N[C@H]1[C@H](O[C@@H]([C@H](O)[C@H](CNc2ccccn2)NC(C)=O)[C@H](O)CO)O[C@H](CO)[C@@H](O[C@@H]2O[C@H](CO[C@H]3O[C@H](CO)[C@@H](O)[C@H](O)[C@@H]3O[C@@H]3O[C@H](CO)[C@@H](O[C@@H]4O[C@H](CO)[C@H](O)[C@H](O)[C@H]4O)[C@H](O)[C@H]3NC(C)=O)[C@@H](O)[C@H](O[C@H]3O[C@H](CO)[C@@H](O[C@@H]4O[C@H](CO)[C@@H](O)[C@H](O[C@@H]5O[C@H](CO)[C@H](O)[C@H](O)[C@H]5O)[C@H]4NC(C)=O)[C@H](O)[C@@H]3O[C@@H]3O[C@H](CO)[C@@H](O[C@@H]4O[C@H](CO)[C@H](O)[C@H](O)[C@H]4O)[C@H](O)[C@H]3NC(C)=O)[C@@H]2O)[C@@H]1O [formula VI] | only lacto-N-biosidic linkage in the substrate was cleaved

test system: lacto-N-biosidase; experiment: Substrate specificity of lacto-N-biosidase (hydrolysis of oligosaccharides, HPLC); format: biochemical, Streptomyces sp 142; settings: not given
Procedure: Lacto-N-biosidase was assayed by being incubated for 20 min with the compound described by formula II below at the concentration of 2 μM at 37° C. in 10 μl of 100 mM potassium phosphate buffer, pH 6.0.
wherein PA represents a pyridylamino residue. […] Then 40 μl of 1% trifluoroacetic acid was added to the reaction mixture to stop the reaction. A portion containing 10 pmol of PA-oligosaccharides was then analyzed by HPLC with an amino-silica column (Palpak Type N column, 4.6×250 mm, Takara Shuzo), and detected by fluorescence with the excitation and emission wavelengths of 310 and 380 nm, respectively. Elution was at the flow rate of 1.0 ml/min at 40° C. with a 70:30 (v/v) mixture of acetonitrile and 0.2M triethylamine acetate buffer, pH 7.3. The degree of hydrolysis was calculated from the peak areas of the substrate and the product, PA-lactose, in comparison with the peak area of the corresponding standard PA-oligosaccharide. One unit of activity was defined as the amount of enzyme needed to release 1 μmol of PA-lactose per minute under the conditions described above.

Row | Molecule | products of hydrolysis by lacto-N-biosidase
4 | CC(=O)N[C@H]1[C@H](Oc2ccc([N+](=O)[O-])cc2)O[C@H](CO)[C@@H](O)[C@@H]1O[C@@H]1O[C@H](CO)[C@H](O)[C@H](O)[C@H]1O [formula V, Galβ1--3GlcNAcβ1--p--nitrophenol] | lacto-N-biose and p-nitrophenol
5 | CC(=O)N[C@H]1[C@H](O[C@@H]([C@H](O)[C@H](CNc2ccccn2)NC(C)=O)[C@H](O)CO)O[C@H](CO)[C@@H](O[C@@H]2O[C@H](CO[C@H]3O[C@H](CO)[C@@H](O)[C@H](O)[C@@H]3O[C@@H]3O[C@H](CO)[C@@H](O[C@@H]4O[C@H](CO)[C@H](O)[C@H](O)[C@H]4O)[C@H](O)[C@H]3NC(C)=O)[C@@H](O)[C@H](O[C@H]3O[C@H](CO)[C@@H](O[C@@H]4O[C@H](CO)[C@@H](O)[C@H](O[C@@H]5O[C@H](CO)[C@H](O)[C@H](O)[C@H]5O)[C@H]4NC(C)=O)[C@H](O)[C@@H]3O[C@@H]3O[C@H](CO)[C@@H](O[C@@H]4O[C@H](CO)[C@H](O)[C@H](O)[C@H]4O)[C@H](O)[C@H]3NC(C)=O)[C@@H]2O)[C@@H]1O [formula III] | lacto-N-biose and the N-acetyllactosamine type of biantennary sugar chain

same assay, conditions: oligosaccharides labelled with 2-aminopyridine

Row | Molecule | hydrolysis by lacto-N-biosidase
6 | poly-N-acetyllactosamine | did not hydrolyze
7 | sialyl lacto-N-tetraose | did not hydrolyze
8 | CC(=O)N[C@H]1[C@H](O[C@H]2[C@@H](O)[C@@H](CO)O[C@@H](O[C@@H]([C@H](O)[C@@H](O)CNc3ccccn3)[C@H](O)CO)[C@@H]2O)O[C@H](CO)[C@@H](O[C@@H]2O[C@H](CO)[C@H](O)[C@H](O)[C@H]2O)[C@@H]1O | did not hydrolyze
9 | CC(=O)N[C@H]1[C@H](O[C@H]2[C@@H](O)[C@@H](CO)O[C@@H](O[C@@H]([C@H](O)[C@@H](O)CNc3ccccn3)[C@H](O)CO)[C@@H]2O)O[C@H](CO)[C@@H](O)[C@@H]1O[C@@H]1O[C@H](CO)[C@H](O)[C@H](O)[C@H]1O[C@@H]1O[C@@H](C)[C@@H](O)[C@@H](O)[C@@H]1O | did not hydrolyze
10 | CC(=O)N[C@H]1[C@H](O[C@H]2[C@@H](O)[C@@H](CO)O[C@@H](O[C@@H]([C@H](O)[C@@H](O)CNc3ccccn3)[C@H](O)CO)[C@@H]2O)O[C@H](CO)[C@@H](O)[C@@H]1O[C@@H]1O[C@H](CO)[C@H](O)[C@H](O)[C@H]1O | specifically hydrolyzed
11 | CC(=O)N[C@H]1[C@H](O[C@@H]2[C@H](O)[C@@H](O)[C@H](O[C@@H]([C@H](O)[C@@H](O)CNc3ccccn3)[C@H](O)CO)O[C@@H]2CO)O[C@H](CO)[C@H](O)[C@@H]1O[C@@H]1O[C@H](CO)[C@H](O)[C@H](O)[C@H]1O [asialo GM1 tetrasaccharide] | did not hydrolyze
12 | CC(=O)N[C@H]1[C@H](O[C@H]2[C@@H](O)[C@@H](CO)O[C@@H](O[C@H]3[C@H](O)[C@@H](O)C(O)O[C@@H]3CO)[C@@H]2O)O[C@H](CO)[C@@H](O)[C@@H]1O (stereo partly drawn) [lacto-N-triose] | did not hydrolyze
